Patent publication US20230123334A1, “AMINO LIPID COMPOUND, PREPARATION METHOD THEREFOR, AND APPLICATION THEREOF” (SHENZHEN SHENXIN BIOTECHNOLOGY CO., LTD., priority 2020, published 2023)

Legend:
Format in all cases: cell-based
Hela cells [1] = test: Transfection of Hela cell line, DNA vectors; settings: 75 ng plasmid DNA, GFP cells / total cells
Description: 1. The compound (0.01 mmol) prepared in Example 1 was dissolved in 1 mL of anhydrous ethanol. After ultrasonically dissolved, 10 μL of the resultant amino lipid solution in ethanol was taken and mixed with 5 μL of DOPE solution in ethanol (0.01 m), and then to the obtained mixture was added 35 μL of 0.2M sodium acetate buffer (pH 5.6), and 50 μL of liposome solution was prepared by vortex at a constant rotating speed for 30 s. 4 μL was taken from the 50 μL liposome solution and added to 46 μL of 0.02M sodium acetate buffer (pH 5.6), and the final liposome solution was formed by vortex at a constant rotating speed for 30 s. 5 μL was taken from the final liposome solution and mixed with 75 ng plasmid DNA (psin-EGFP-IRES-Puro, Clontech) dissolved in 5 μL of 0.02 M sodium acetate buffer, and was allowed to stay at room temperature for 30 min to form a lipid/DNA transfection complex.
2. 10 μL of the lipid/DNA transfection complex was incubated at room temperature for 30 min, followed by addition of 90 μL of fresh resuspended cells (3-5×10^4 cells) and mixing with a pipette. 100 μL of cells+lipid/DNA complex was transferred to separate wells of a 96-well culture plate immediately, and placed in an incubator containing 5% CO2 at 37° C.
3. Hoechst33258 (Invitrogen) was added at a final concentration of 0.2 μg/mL to the cells 20 to 24 hours after initial cell transfection, and cultured in darkness at 37° C. for 15 min. Afterwards, the cells were washed once with a PBS solution, and then added with medium for culture for 20 to 24 h.
4. The cells were placed in a high-throughput confocal microscope (Molecular Devices ImageXpress), and four visual fields of the image of the cells were captured for each well, and images at three laser wavelengths were captured for each sample: bright field images of cells (FIG. 2(a) and FIG. 2(b)), Hoechst-staining images showing total nuclei (FIG. 2(c) and FIG. 2(d)) and GFP images showing success in transfection with the plasmid DNA and the expression of GFP (FIG. 2(e) and FIG. 2(f)). MetaXpress software was used to separately count the cells in the Hoechst-staining images and GFP images, and then the number of cells expressing GFP was divided by the total number of nuclei to give the absolute cell transfection efficiency. The absolute transfection efficiency was calculated as follows: […]
(§1) Cell line: Hela cells (ATCC 35241)
(§2) Medium: DMEM supplemented with 10% fetal bovine serum (Invitrogen)
(§3) Screening: cell transfection on 96-well plates
Detection (readout): percentage of the number of GFP fluorescent cells relative to the total number of cells (the total number of cells was determined using nucleus dye Hoechst). Lipofectamine2000 (Invitrogen) was used as the positive control, according to the manufacturer's instructions.
(§4) Method: the experimental method was basically the same with Example 4.

MCF7 cells [2] = test: Transfection of MCF7 cell line, DNA vectors; set-up: concentration or dose not given beside the values; settings: plasmid DNA, GFP cells / total cells
Description: (§5) Cell line: MCF7 cells (ATCC HTB-22)
Medium DMEM supplemented with […] fetal bovine serum
as §3
Detection (readout): percentage of the number of GFP fluorescent cells relative to the total number of cells (the total number of cells was determined using nucleus dye Hoechst). Lipofectamine2000 was used as the positive control, according to the manufacturer's instructions.
as §4

MCF7 cells [3] = test: Transfection of MCF7 cell line, mRNA vectors; settings: 50 ng EGFP mRNA per well
Description: as §5
Medium: DMEM supplemented with 10 fetal bovine serum (Invitrogen)
as §3
Detection (readout): percentage of the number of GFP fluorescent cells relative to the total number of cells (the total number of cells was determined using nucleus dye Hoechst). Lipofectamine2000 (Invitrogen) was used as the positive control.
Method: the experimental method was basically the same with Example 4, and the mass of EGFP mRNA (TriLink) for transfection was 50 ng per well.

Hela cells [4] = test: Transfection of Hela cell line, mRNA vectors; settings: 50 ng EGFP mRNA per well
Description: as §1, §2, §3
Detection (readout): percentage of the number of GFP fluorescent cells relative to the total number of cells (the total number of cells was determined using nucleus dye Hoechst). A commercially available liposome transfection reagent Lipofectamine2000 (Invitrogen) was used as the positive control group, according to the manufacturer's instructions.
Method: the experimental method was basically the same with Example 4, and the mass of EGFP mRNA for transfection was 50 ng per well.

HEK293 cells [5] = test: Preliminary screening as DNA vectors, GFP transfection of HEK293 cells; settings: HEK293 cells; lipid/DOPE liposome with 75 ng plasmid DNA (psin-EGFP-IRES-Puro); number of cells expressing GFP divided by total number of nuclei (Hoechst)
Outline: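 HEK293 cells in DMEM/10% FBS transfected with 75 ng EGFP plasmid per well complexed with amino lipid/DOPE liposomes in pH 5.6 sodium acetate. Hoechst nuclear stain added 20-24 h post-transfection, then cells cultured another 20-24 h. Confocal imaging gives GFP-positive cells as % of total nuclei.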

HEK293 cells [6] = test: Preliminary screening as mRNA vectors, EGFP mRNA transfection of HEK293 cells; settings: HEK293 cells, 96-well plates, EGFP mRNA 50 ng per well; percentage of GFP fluorescent cells relative to total number of cells (Hoechst)
Outline: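 HEK293 cells in DMEM plus 10% FBS transfected in 96-well format with 50 ng EGFP mRNA per well; Lipofectamine2000 served as positive control. Read-out is the percentage of GFP-fluorescent cells among total cells, counted by Hoechst nuclear stain.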

| Structure (SMILES) | Absolute DNA transfection efficiency in Hela cells (Hela cells [1]) [%] | Absolute DNA transfection efficiency in MCF7 cells (MCF7 cells [2]) [%] | Absolute mRNA transfection efficiency in MCF7 cells (MCF7 cells [3]) [%] | Absolute mRNA transfection efficiency in Hela cells (Hela cells [4]) [%] | Absolute DNA transfection efficiency in HEK293 cells (HEK293 cells [5]) [%] | Absolute mRNA transfection efficiency in HEK293 cells (HEK293 cells [6]) [%] |
| --- | --- | --- | --- | --- | --- | --- |
| CCCCCCCCCCCSc1nc(NCCN2CCCC2)nc(SCCCCCCC)n1 [Compound S7S11D3] | 4.8 | 6.4 | 6.7 | 4.8 | – | – |
| CCCCCCCCCCCSc1nc(NCCN2CCN(C)CC2)nc(SCCCCCCC)n1 [Compound S7S11D5] | 16.8 | 23.3 | 16.5 | 16.8 | – | – |
| CCCCCCCCCCCSc1nc(NCCCN(C)C)nc(SCCCCCCC)n1 [Compound S7S11D6] | 14.5 | 38.1 | 26.1 | 14.5 | – | – |
| CCCCCCCCCCCCSc1nc(NCCN(C)C)nc(SCCCCCCCCC)n1 [Compound S9S12D1] | 7.9 | – | – | 7.9 | 14.6 | 0.8 |
| CCCCCCCCCCCCSc1nc(NCCN2CCOCC2)nc(SCCCCCCCCC)n1 [Compound S9S12D2] | 8.5 | – | – | 8.5 | 16.7 | 0.0 |
| CCCCCCCCCCCCSc1nc(NCCN2CCCCC2)nc(SCCCCCCCCC)n1 [Compound S9S12D4] | 0.0 | – | – | 0.0 | 0.0 | 0.6 |
| CCCCCCCCCCCCSc1nc(NCCN(CC)CC)nc(SCCCCCCCCC)n1 [Compound S9S12D7] | 2.7 | – | – | 2.7 | 5.3 | 3.4 |
| CCCCCCCCCCCCCCSc1nc(NCCN(C)C)nc(SCCCCCCCCC)n1 [Compound S9S14D1] | 1.4 | – | – | 1.4 | 2.1 | 1.6 |
| CCCCCCCCCCCCCCSc1nc(NCCN2CCOCC2)nc(SCCCCCCCCC)n1 [Compound S9S14D2] | 7.3 | – | – | 7.3 | 14.3 | 0.3 |
| CCCCCCCCCCCCCCSc1nc(NCCN2CCCCC2)nc(SCCCCCCCCC)n1 [Compound S9S14D4] | 3.6 | – | – | 3.6 | 7.2 | 0.7 |
| CCCCCCCCCCCCCCSc1nc(NCCN(CC)CC)nc(SCCCCCCCCC)n1 [Compound S9S14D7] | 6.5 | – | – | 6.2 | 12.5 | 1.5 |
| CCCCCCCCCCCCCCCSc1nc(NCCN(C)C)nc(SCCCCCCCCC)n1 [Compound S9S15D1] | 1.3 | – | – | 1.3 | 2.1 | 0.0 |
| CCCCCCCCCCCCCCCSc1nc(NCCN2CCOCC2)nc(SCCCCCCCCC)n1 [Compound S9S15D2] | 5.9 | – | – | 5.9 | 10.6 | 0.0 |
| CCCCCCCCCCCCCCCSc1nc(NCCN2CCCCC2)nc(SCCCCCCCCC)n1 [Compound S9S15D4] | 5.8 | – | – | 5.8 | 11.8 | 2.1 |
| CCCCCCCCCCCCCCCSc1nc(NCCN(CC)CC)nc(SCCCCCCCCC)n1 [Compound S9S15D7] | 2.8 | – | – | 2.8 | 5.0 | 1.2 |
| CCCCCCCCCCCCCCCCSc1nc(NCCN(C)C)nc(SCCCCCCCCC)n1 [Compound S9S16D1] | 0.0 | – | – | 0.0 | 0.0 | 0.0 |
| CCCCCCCCCCCCCCCCSc1nc(NCCN2CCOCC2)nc(SCCCCCCCCC)n1 [Compound S9S16D2] | 0.7 | – | – | 0.7 | 1.5 | 0.0 |
| CCCCCCCCCCCCCCCCSc1nc(NCCN2CCCCC2)nc(SCCCCCCCCC)n1 [Compound S9S16D4] | 6.2 | – | – | 6.2 | 12.2 | 1.2 |
| CCCCCCCCCCCCCCCCSc1nc(NCCN(CC)CC)nc(SCCCCCCCCC)n1 [Compound S9S16D7] | 4.2 | – | – | 4.2 | 8.4 | 1.8 |
